# Reference: US20200375965A1, “Targeting Lipid Metabolism and Free Fatty Acid (FFA) Oxidation to Treat Diseases Mediated by Resident Memory T Cells (TRM)” (The Brigham and Women's Hospital, Inc., priority 2018, published 2020)
# Assays:
# VACV = test system: VACV; set-up: species or system mice; conditions: mouse, in vivo
# [1] = test system: OT-I TRM, TCM and Fabp4/5 dKO TRM; experiment: Seahorse Fatty Acid Oxidation (FAO) assay, oxygen-consumption rate; format: cell-based, mouse
# Method: Oxidation of exogenous free fatty acids (FFA) was measured using XF Palmitate-BSA FAO substrate with XF cell mito stress kit according to the manufacturer's protocol (Seahorse Bioscience). Freshly isolated and sorted T cells (2.5×10^5) were incubated for 30 min with FAO assay medium (111 mM NaCl, 4.7 mM KCl, 1.25 mM CaCl2), 2.0 mM MgSO4, 1.2 mM Na2HPO4, 2.5 mM glucose, 0.5 mM carnitine and 5 mM HEPES). When required, cells were pre-treated with etomoxir (40 μM) for 15 min. Afterwards, BSA (34 μM) or palmitate-BSA (200 μM palmitate conjugated with 34 μM BSA) was added to the medium, and the oxygen-consumption rate (OCR) was measured under basal conditions and in response to 1 uM oligomycin, 1.5 uM fluorocarbonyl cyanide phenylhydrazone (FCCP), and 100 nM rotenone+1 uM antimycin A. Results were normalized to those of control cells in the presence of BSA.
# [2] = test system: TRM mediated contact hypersensitivity (CHS); experiment: DNFB contact hypersensitivity (CHS), ear thickness; format: in vivo, C57BL/6 mice; conditions: etomoxir 1 ug/site, trimetazidine 10 ug/site at challenge with 0.25% DNFB
# Method: FIG. 15. […] Effect of FAO inhibition on contact hypersensitivity (CHS) reaction post DNFB re-exposure. DNFB: 20 ul, 0.25% in acetone:olive oil (aOO) (3:1 v/v); Etomoxir (1 ug/site); Trimetazidine (10 ug/site). N=10 mice per group.
# C57BL/6 mice were sensitized by topical applications of 20 μl of 0.25% DNFB diluted in acetone olive oil (3:1 v/v) at the indicated time points (day 0, 1 and 7). Challenge was performed at the infection site with 20 μl of DNFB-acetone olive oil (aOO) (0.25%), with or without etomoxir (1 ug/site) and trimetazidine (10 ug/site), at the indicated time points. Then the ear thickness of the mice was measured with a digital thickness gauge (Mitsutoyo) for the following days.
# WR-VACV = test system: WR-VACV; set-up: species or system mice; conditions: mouse, in vivo
# OT-1 skin TRM = experiment: Bodipy FL C16 (Bodipy conjugated palmitate) uptake ex vivo, flow cytometry; format: cell-based, mouse; conditions: pre-incubation with unlabeled palmitate (100 μM palmitic acid, 10 min, 37° C.); day 30 TRM
# Excerpt: The following anti-mouse antibodies were obtained from BD PharMingen: PerCP-conjugated anti-CD3e (553067), PE-conjugated anti-CD8 (557654), PE-Cy7-conjugated anti-CD8 (552877), APC-Cy7-conjugated anti-CD8 (557654), PE-conjugated anti-Thy1.1 (561404), APC-conjugated anti-Thy1.1 (557266), Alexa Fluor 488-conjugated anti-KLRG1 (561619), PE-conjugated anti-integrin α4β7 (553811), PE-Cy7-conjugated anti-CD62L (560516), APC-Cy7-conjugated CD62L (560514), APC-conjugated anti-IFN-γ (554413). Biolegend: Alexa Fluor 488-conjugated anti-CD3e (100321), Alexa Fluor 647-conjugated anti-CD4 (100424), Alexa Fluor 594-conjugated anti-Ep-CAM (118222), FITC-conjugated anti-CD45.1 (110706), PE-conjugated anti-CD45.1 (110708), PE-Cy7-conjugated anti-CD45.2 (109830), APC-conjugated anti-CD45.2 (109814), PE-conjugated anti-CD45.2 (109808), APC-conjugated anti-KLRG1 (138412), PE-conjugated anti-CD44 (103008), PE-Cy7-conjugated anti-CD44 (103030), PE-Cy7-conjugated anti-CD69 (104512), APC-conjugated anti-CD103 (121414), APC-conjugated anti-integrin α4β7 (120608). […] Apoptosis was measured with FITC Annexin V Apoptosis Detection Kit (640922; Biolegend) according to manufacturer's protocol. Flow cytometry data were acquired with a FACS Canto II flow cytometer (BD Biosciences) and data were analyzed with Flowjo software (Tree Star). […]
smiles,measurement,setting,value
"CCOC(=O)C1(CCCCCCOc2ccc(Cl)cc2)CO1 (stereo not shown) [etomoxir, 2-(6-(4-chlorophenoxy)-hexyl)-oxirane-2-carboxylic acid ethyl ester]",VACV clearing capacity of OT-I WT TRM,VACV,reduced
same,enhanced basal and FCCP-stimulated maximal oxygen-consumption rate (OCR) induced by extracellular fatty acids,"[1]; OT-I TRM, pre-treatment with etomoxir 40 μM for 15 min",blocked
same,cellular respiration (OCR),"[1]; TCM or Fabp4/5 dKO TRM OT-I cells, addition of etomoxir",no effect
same,contact hypersensitivity (CHS) reaction post DNFB re-exposure,[2],Block
COc1ccc(CN2CCNCC2)c(OC)c1OC [trimetazidine],contact hypersensitivity (CHS) reaction post DNFB re-exposure,[2],Block
CCCCCCCCc1ccc(CCC(N)(CO)CO)cc1 [FTY720],clearing of virus from skin by established OT-I WT TRM,"VACV; ip, 1 mg/kg",unaffected
same,reduced viral clearance by OT-I TRM lacking Fabp4 and Fabp5,"VACV; ip, 1 mg/kg",exaggerated
same,mortality,WR-VACV,100%
same,protection from lethality,WR-VACV,partially but significantly protected
"CCCCCCCCCCCCCCCC(=O)O [unlabeled palmitate, palmitic acid]",uptake of extracellular Bodipy conjugated palmitate,OT-1 skin TRM,blocked
